The assay has as its target T1, human melanin-concentrating hormone one receptor (Homo sapiens, UniProt Q99705).
T1 construct: expressed in transfected cells; host or cells: CHO (CHO-K1) cells stably expressing an elkgal4-luc+ reporter gene
Nature of the assay: Functional antagonist assay of MCHR1 (elkgal4-luc+ luciferase reporter gene in CHO cells, inhibition of MCH EC80 response). As to conditions: MCH1R-elkgal4-luc+ CHO cells, luciferase readout, read-out: MCHR1 pIC50 (converted). The assay is classed as cell-based.

T1 sequence (Q99705 whole entry, the tested form may be a part): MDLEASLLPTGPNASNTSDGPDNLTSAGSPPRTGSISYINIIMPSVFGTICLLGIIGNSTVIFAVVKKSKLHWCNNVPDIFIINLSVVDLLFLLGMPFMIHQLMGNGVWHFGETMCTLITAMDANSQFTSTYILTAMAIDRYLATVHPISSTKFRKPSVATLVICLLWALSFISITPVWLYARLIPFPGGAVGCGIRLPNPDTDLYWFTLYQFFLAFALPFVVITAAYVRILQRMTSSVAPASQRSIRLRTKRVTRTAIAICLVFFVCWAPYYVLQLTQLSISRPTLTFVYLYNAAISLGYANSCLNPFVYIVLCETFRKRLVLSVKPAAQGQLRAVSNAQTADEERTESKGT
Experimental: Chinese hamster ovary (CHO-K1) cells were obtained from the American Type Culture Collection (Rockville, Md.).
CHO cells, stably expressing an elkgal4-luc^+ reporter gene (host) were transfected by electroporation with the human melanin-concentrating hormone one receptor. A stable clone was selected using G418 for functional antagonist assays. MCH1R-elkgal4-luc^+ CHO cells were propagated in complete medium (DMEM/F12, 5% FBS, 2 mM I-glutamine) in T225 flasks. Forty-eight hours prior to assay, cells were harvested with 2 mL of 0.05% trypsin, washed with complete medium and plated at a concentration of 10,000 cells/well in complete medium in black 96-well plates. Eighteen hours prior to the assay, the medium was removed from the cells by aspiration and replaced with 90 μl/well of serum-free DMEM/F12. […] Plates were sealed and subjected to dark adaptation at room temperature for 10 minutes before luciferase activity was quantitated on a TopCount™ microplate scintillation counter (Packard) using 3 seconds/well count time. The ability of the antagonist to inhibit the MCH EC80 response was quantified by non-linear regression analysis using a curve-fitting program based in Microsoft ExCel. Specificity of the MCHR1 response was determined using the same protocol by measuring the ability of said antagonists to inhibit an EC80 thrombin response (endogenous) in the host cells.

As to `COc1cc(-n2cnc3cc(-c4ccccc4)ccc3c2=O)ccc1OCCN1CCCCC1` [Example H1, 3-{3-methoxy-4-[2-(1-piperidinyl)ethoxy]phenyl}-7-phenyl-4(3H)-quinazolinone], the IC50 is 79.4 nM.

In the case of `COc1cc(-n2cnc3cc(-c4ccc(C(F)(F)F)cc4)ccc3c2=O)ccc1OCCN1CCCC1` [Example J1, 3-{3-methoxy-4-[2-(1-pyrrolidinyl)ethoxy]phenyl}-7-[4-(trifluoromethyl)phenyl]-4(3H)-quinazolinone], the IC50 is 63.1 nM.

Values taken from patent US7285557B2, “Pyrimidinones as melanin concentrating hormone receptor 1” (SmithKline Beecham P.L.C., priority 2001, dated 2007).
